From patent US20170247326A1, “Substituted Pyrrolidine Carboxamide Compounds” (EPIZYME, INC., priority 2014, published 2017) come the findings set out here.

This assay addresses T1, SMYD2 (Homo sapiens, UniProt Q9NRG4).
T1 construct: Full length SMYD2 (NP_064582.2) was cloned; His6 (N, cleaved yes); FLAG (N); made in house; host or cells: Sf9 insect cells
The assay is described as follows: SMYD2 biochemical assay (3H-SAM, biotinylated peptide substrate, Flashplate). Conditions: average of n = 1 to n = 50, read-out: SMYD2 Biochem IC50. An outline of the steps:
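Full-length His/FLAG-tagged SMYD2 (tag removed, Sf9-expressed) at 1.5 nM was preincubated with compound for 30 min at room temperature in Bicine pH 7.6 buffer with 2% DMSO. Reaction used 10 nM 3H-SAM and 60 nM biotinylated peptide, stopped with 600 uM cold SAM. Streptavidin-captured 3H-peptide counted; IC50 from 3- or 4-parameter fit.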

Read-outs that look alike come from different tables or passages of the source.

T1 sequence (Q9NRG4 whole entry): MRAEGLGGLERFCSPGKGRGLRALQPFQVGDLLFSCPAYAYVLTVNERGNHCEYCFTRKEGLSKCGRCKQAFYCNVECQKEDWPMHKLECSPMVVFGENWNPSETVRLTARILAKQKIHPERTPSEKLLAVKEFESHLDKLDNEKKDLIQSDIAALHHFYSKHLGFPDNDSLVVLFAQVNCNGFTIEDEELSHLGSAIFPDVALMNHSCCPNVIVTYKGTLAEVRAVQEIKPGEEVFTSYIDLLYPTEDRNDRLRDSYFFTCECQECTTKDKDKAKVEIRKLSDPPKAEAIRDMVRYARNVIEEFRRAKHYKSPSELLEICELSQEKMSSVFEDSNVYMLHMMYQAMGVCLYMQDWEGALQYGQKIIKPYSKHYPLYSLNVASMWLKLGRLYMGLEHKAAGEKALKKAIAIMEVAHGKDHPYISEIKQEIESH

What is called IC50 is the concentration needed to halve the response being measured. For the molecule `CC(C)N1C[C@H](C)[C@H](NC(=O)c2nc(C3CC3)no2)C1` (racemic) [compound 81, (±)-cis-3-cyclopropyl-N-[4-methyl-1-(propan-2-yl)pyrrolidin-3-yl]-1,2,4-oxadiazole-5-carboxamide], where the note is “Table 3”, the IC50 is > 50 µM.

Regarding `CC(C)N1C[C@H](C)[C@H](NC(=O)c2cc(C3CC3)c[nH]c2=O)C1` (racemic) [compound 82, (±)-cis-5-cyclopropyl-N-[4-methyl-1-(propan-2-yl)pyrrolidin-3-yl]-2-oxo-1,2-dihydropyridine-3-carboxamide], the IC50 (Table 3) was found to be 13.6 µM.

For the molecule `CC(C)N1C[C@H](C)[C@H](NC(=O)c2ccc(C3CC3)[nH]c2=O)C1` (racemic) [compound 83, (±)-cis-6-cyclopropyl-N-[4-methyl-1-(propan-2-yl)pyrrolidin-3-yl]-2-oxo-1,2-dihydropyridine-3-carboxamide], the IC50 (Table 3) was > 50 µM.

Consider `CC(C)N1C[C@H](C)[C@H](NC(=O)c2n[nH]c(C3CC3)n2)C1` (racemic) [compound 84, (±)-cis-5-cyclopropyl-N-[4-methyl-1-(propan-2-yl)pyrrolidin-3-yl]-1H-1,2,4-triazole-3-carboxamide], for which the IC50 (Table 3) came out at 36.8 µM.

Regarding `CC(C)N1C[C@H](C)[C@H](NC(=O)c2cc(O)c3c(c2)OCC(=O)N3)C1` (racemic) [compound 85, (±)-cis-5-hydroxy-N-[4-methyl-1-(propan-2-yl)pyrrolidin-3-yl]-3-oxo-3,4-dihydro-2H-1,4-benzoxazine-7-carboxamide], the IC50 (Table 3) is > 50 µM.

On to `CC(C)N1C[C@@H](C)[C@@H](NC(=O)c2nc(C3CC3)ns2)C1` (racemic) [compound 86, (±)-cis-3-cyclopropyl-N-[4-methyl-1-(propan-2-yl)pyrrolidin-3-yl]-1,2,4-thiadiazole-5-carboxamide], for which the IC50 (Table 3) was > 50 µM.

As to `CC(C)N1C[C@H](C)[C@H](NC(=O)c2nsc(C3CC3)n2)C1` (racemic) [compound 88, (±)-cis-5-cyclopropyl-N-[4-methyl-1-(propan-2-yl)pyrrolidin-3-yl]-1,2,4-thiadiazole-3-carboxamide], the IC50 (Table 3) was > 50 µM.

Consider `CC(C)N1C[C@@H](C)[C@@H](NC(=O)c2cc(C3CC3)n(C)n2)C1` (racemic) [compound 89, (±)-cis-5-cyclopropyl-1-methyl-N-[4-methyl-1-(propan-2-yl)pyrrolidin-3-yl]-1H-pyrazole-3-carboxamide], for which the IC50 (Table 3) is > 50 µM.

Take `CC(C)N1C[C@H](C)[C@H](NC(=O)c2cncc(C3CC3)c2)C1` (racemic) [compound 90, (±)-cis-5-cyclopropyl-N-[4-methyl-1-(propan-2-yl)pyrrolidin-3-yl]pyridine-3-carboxamide]: the IC50 (Table 3) was > 50 µM.

For the molecule `CC(C)N1C[C@H](C)[C@H](NC(=O)c2cc(C3CC3)ns2)C1` (racemic) [compound 91, (±)-cis-3-cyclopropyl-N-[4-methyl-1-(propan-2-yl)pyrrolidin-3-yl]-1,2-thiazole-5-carboxamide], the IC50 (Table 3) was > 50 µM.

For `CC(C)N1C[C@H](C)[C@H](NC(=O)c2csnc2C2CC2)C1` (racemic) [compound 92, (±)-cis-3-cyclopropyl-N-[4-methyl-1-(propan-2-yl)pyrrolidin-3-yl]-1,2-thiazole-4-carboxamide], the IC50 (Table 3) came to 19.6 µM.

Regarding `CC(C)N1C[C@H](C)[C@H](NC(=O)c2cc(C3CC3)sn2)C1` (racemic) [compound 93, (±)-cis-5-cyclopropyl-N-[4-methyl-1-(propan-2-yl)pyrrolidin-3-yl]-1,2-thiazole-3-carboxamide], the IC50 (Table 3) came out at 0.776 µM.

For the molecule `CC(C)N1C[C@H](C)[C@H](NC(=O)c2cc(C3CCC3)cnn2)C1` (racemic) [compound 94, (±)-cis-5-cyclobutyl-N-[4-methyl-1-(propan-2-yl)pyrrolidin-3-yl]pyridazine-3-carboxamide], the IC50 (Table 3) was > 50 µM.

In the case of `CCc1cnnc(C(=O)N[C@@H]2CN(C(C)C)C[C@@H]2C)c1` (racemic) [compound 96, (±)-cis-5-ethyl-N-[4-methyl-1-(propan-2-yl)pyrrolidin-3-yl]pyridazine-3-carboxamide], the IC50 (Table 3) was found to be 5.09 µM.

On to `C[C@@H]1CN(Cc2ccc(OCc3ccccc3)cc2)C[C@H]1NC(=O)c1cn(C2CC2)nn1` (racemic) [compound 97, (±)-trans-N-(1-{[4-(benzyloxy)phenyl]methyl}-4-methylpyrrolidin-3-yl)-1-cyclopropyl-1H-1,2,3-triazole-4-carboxamide], for which, under “Table 3”, the IC50 was determined as 10.5 µM.

With `C[C@H]1CN(Cc2ccccc2)C[C@H]1NC(=O)c1cc(C2CC2)cnn1` (racemic) [compound 99, (±)-cis-N-(1-benzyl-4-methylpyrrolidin-3-yl)-5-cyclopropylpyridazine-3-carboxamide], under “Table 3”, the IC50 amounted to 0.574 µM.

`CCN1C[C@H](C)[C@H](NC(=O)c2cc(C3CC3)cnn2)C1` (racemic) [compound 100, (±)-cis-5-cyclopropyl-N-(1-ethyl-4-methylpyrrolidin-3-yl)pyridazine-3-carboxamide]: where the note is “Table 3”, the IC50 came to 0.611 µM.

Consider `CC(C)c1coc(C(=O)N[C@@H]2CN(C(C)C)C[C@@H]2C)n1` (racemic) [compound 102, (±)-cis-N-[4-methyl-1-(propan-2-yl)pyrrolidin-3-yl]-4-(propan-2-yl)-1,3-oxazole-2-carboxamide], for which the IC50 (Table 3) was > 50 µM.

`C[C@H]1CN(C)C[C@H]1NC(=O)c1cc(C2CC2)cnn1` (racemic) [compound 103, (±)-cis-5-cyclopropyl-N-(1,4-dimethylpyrrolidin-3-yl)pyridazine-3-carboxamide]: the 50% inhibitory concentration (IC50) (Table 3) came to 1.67 µM.

As to `C[C@@H]1CN(Cc2ccc(OCc3ccccc3)cc2)C[C@@H]1NC(=O)c1cc(C2CC2)cnn1` (racemic) [compound 104, (±)-cis-N-(1-{[4-(benzyloxy)phenyl]methyl}-4-methylpyrrolidin-3-yl)-5-cyclopropylpyridazine-3-carboxamide], the IC50 (Table 3) amounted to 0.0917 µM.

Consider `CC(C)N1C[C@H](C)[C@H](NC(=O)c2cc(C3CC3)ccn2)C1` (racemic) [compound 105, (±)-cis-4-cyclopropyl-N-[4-methyl-1-(propan-2-yl)pyrrolidin-3-yl]pyridine-2-carboxamide], for which, under “Table 3”, the IC50 worked out at 0.694 µM.

As to `C[C@H]1CN(Cc2ccc(OCc3ccccc3)cc2)C[C@@H]1NC(=O)c1cc(C2CC2)cnn1` (racemic) [compound 107, (±)-trans-N-(1-{[4-(benzyloxy)phenyl]methyl}-4-methylpyrrolidin-3-yl)-5-cyclopropylpyridazine-3-carboxamide], the IC50 (Table 3) worked out at 2.7 µM.

Take `CC(C)N1C[C@@H](C)[C@H](NC(=O)c2ccc(C3CC3)nn2)C1` (racemic) [compound 108, (±)-trans-6-cyclopropyl-N-[4-methyl-1-(propan-2-yl)pyrrolidin-3-yl]pyridazine-3-carboxamide]: under “Table 3”, the IC50 was > 50 µM.

Consider `CC(C)N1C[C@H](C)[C@H](NC(=O)c2ccc(C3CC3)nn2)C1` (racemic) [compound 109, (±)-cis-6-cyclopropyl-N-[4-methyl-1-(propan-2-yl)pyrrolidin-3-yl]pyridazine-3-carboxamide], for which, under “Table 3”, the IC50 was > 50 µM.

Take `CC(C)N1C[C@@H](C)[C@H](NC(=O)c2cc(C3CC3)cnn2)C1` (racemic) [compound 111, (±)-trans-5-cyclopropyl-N-[4-methyl-1-(propan-2-yl)pyrrolidin-3-yl]pyridazine-3-carboxamide]: the IC50 (Table 3) was 12 µM.

As for `CC(C)c1cnnc(C(=O)N[C@@H]2CN(C(C)C)C[C@@H]2C)c1` (racemic) [compound 118, (±)-cis-5-isopropyl-N-(1-isopropyl-4-methylpyrrolidin-3-yl)pyridazine-3-carboxamide], the IC50 (Table 3) is 10.4 µM.

For `CC(C)c1cnnc(C(=O)N[C@@H]2CN(C(C)C)C[C@@H]2C)c1` (racemic) [compound 124, rac-5-isopropyl-N-((3R,4R)-1-isopropyl-4-methylpyrrolidin-3-yl)pyridazine-3-carboxamide], the IC50 (Table 4) came out at 10.4 µM.

For the molecule `C[C@H]1CN(S(=O)(=O)CCCN)C[C@H]1NC(=O)c1cc(C2CC2)cnn1` (racemic) [compound 126, rac-N-((3R,4R)-1-((3-aminopropyl)sulfonyl)-4-methylpyrrolidin-3-yl)-5-cyclopropylpyridazine-3-carboxamide], where the note is “Table 4”, the IC50 is > 50 µM.

As for `C[C@H]1CN(S(=O)(=O)CCN)C[C@H]1NC(=O)c1cc(C2CC2)cnn1` (racemic) [compound 127, rac-N-((3R,4R)-1-((2-aminoethyl)sulfonyl)-4-methylpyrrolidin-3-yl)-5-cyclopropylpyridazine-3-carboxamide], under “Table 4”, the IC50 was > 50 µM.

With `CNCCS(=O)(=O)N1C[C@H](C)[C@H](NC(=O)c2cc(C3CC3)cnn2)C1` (racemic) [compound 128, rac-5-cyclopropyl-N-((3R,4R)-4-methyl-1-((2-(methylamino)ethyl)sulfonyl)pyrrolidin-3-yl)pyridazine-3-carboxamide], under “Table 4”, the IC50 is > 50 µM.

Take `CC(C)N1C[C@H](CO)[C@H](NC(=O)c2cc(C3CC3)cnn2)C1` (racemic) [compound 129, rac-5-cyclopropyl-N-((3R,4R)-4-(hydroxymethyl)-1-isopropylpyrrolidin-3-yl)pyridazine-3-carboxamide]: the IC50 (Table 4) is 0.77 µM.

As to `CC(C)N1C[C@@H](N(C)C(=O)c2cc(C3CC3)cnn2)[C@@H](C)C1` (racemic) [compound 130, rac-5-cyclopropyl-N-((3R,4R)-1-isopropyl-4-methylpyrrolidin-3-yl)-N-methylpyridazine-3-carboxamide], under “Table 4”, the IC50 is 6.4 µM.

On to `C[C@H]1CN(Cc2ccc(OCc3ccccc3)cc2)C[C@@H]1NC(=O)c1cc(C2CC2)cnn1` (racemic) [compound 132, rac-N-((3R,4S)-1-(4-(benzyloxy)benzyl)-4-methylpyrrolidin-3-yl)-5-cyclopropylpyridazine-3-carboxamide], for which the IC50 (Table 4) turned out to be 2.7 µM.
